# Test results taken from US9695155B2, “Herbicidal substituted pyrimidinyloxy benzene compounds” (E. I. DU PONT DE NEMOURS AND COMPANY, priority 2013, dated 2017).
# What was measured:
# yellow nutsedge = test: Test C postemergence; format: in vivo, Cyperus esculentus; settings: Cyperus, post-emergence
# Description: (§1) Seeds of plant species selected from blackgrass (Alopecurus myosuroides), Italian ryegrass (Lolium multiflorum), wheat, winter (winter wheat, Triticum aestivum), galium (catchweed bedstraw, Galium aparine), corn (Zea mays), large (Lg) crabgrass (Digitaria sanguinalis), giant foxtail (Setaria faberii), johnsongrass (Sorghum halepense), lambsquarters (Chenopodium album), morningglory (Ipomoea coccinea), yellow nutsedge (Cyperus esculentus), pigweed (Amaranthus retroflexus), ragweed (common ragweed, Ambrosia elatior), soybean (Glycine max), barnyardgrass (Echinochloa crus-galli), oilseed rape (Brassica napus), waterhemp (common waterhemp, Amaranthus rudis), kochia (Kochia scoparia), wild oat (Avena fatua), surinam grass (Brachiaria decumbens), foxtail, green (green foxtail, Setaria viridis), goosegrass (Eleusine indica), bromegrass, downy (downy bromegrass, Bromus tectorum), nightshade (eastern black nightshade, Solanum ptycanthum), cocklebur (common cocklebur, Xanthium strumarium), cupgrass, woolly (woolly cupgrass, Eriochloa villosa), bermudagrass (Cynodon dactylon), sunflower, (common oilseed sunflower, Helianthus annuus), Russian thistle (Salsola kali), and velvetleaf (Abutilon theophrasti) were planted into a blend of loam soil and sand and treated preemergence with test chemicals formulated in a non-phytotoxic solvent mixture which included a surfactant.
# (§2) At the same time, plants selected from these crop and weed species and also barley, winter (winter barley, Hordeum vulgare), windgrass (Apera spica-venti), chickweed (common chickweed, Stellaria media), deadnettle (henbit deadnettle, Lamium amplexicaule), and canarygrass (littleseed canarygrass, Phalaris minor) were planted in pots containing Redi-Earth® planting medium (Scotts Company, 14111 Scottslawn Road, Marysville, Ohio 43041) comprising spaghnum peat moss, vermiculite, wetting agent and starter nutrients and treated with postemergence applications of test chemicals formulated in the same manner. Plants ranged in height from 2 to 18 cm (1- to 4-leaf stage) for postemergence treatments. Treated plants and controls were maintained in a greenhouse for 13 to 15 days, after which time all species were compared to controls and visually evaluated. Plant response ratings, summarized in Table C, are based on a scale of 0 to 100 where 0 is no effect and 100 is complete control. A dash (-) response means no test result.
# wild oat = test: Test C postemergence; format: in vivo, Avena fatua; settings: Avena fatua, post-emergence
# Description: as §1, §2
# pigweed = test: Test C postemergence; format: in vivo, Amaranthus retroflexus; settings: Amaranthus retroflexus, post-emergence
# Description: as §1, §2
# Italian ryegrass = test: Test C postemergence; format: in vivo, Lolium multiflorum; settings: Lolium multiflorum, post-emergence
# Description: as §1, §2
# morningglory = test: Test A preemergence; format: in vivo, Ipomoea spp.; settings: Ipomoea, pre-emergence, 240 h, read-out: Morningglory plant response rating
# Summary of the method: (§3)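 Visual injury scored 0–100 (100 = complete control) against untreated controls about 10 days after treatment in a greenhouse. Test chemicals, formulated with surfactant in non-phytotoxic solvent, were sprayed on soil preemergence or on 2-10 cm, one- to two-leaf plants postemergence.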
# barnyardgrass [1] = test: Test B flooded paddy test; format: in vivo, Echinochloa crus-galli; settings: Echinochloa crus-galli; Flood, 250 g ai/ha; 0 to 100 scale where 0 is no effect and 100 is complete control; read-out: Plant response rating, Barnyardgrass
# Summary of the method: (§4)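 Post-emergence paddy-water application at the 2-leaf stage, with 3 cm flood kept for the whole test. Response was judged visually relative to controls after 13 to 15 greenhouse days, 0 indicating no effect and 100 complete control.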
# barnyardgrass [2] = test: Test A postemergence; format: in vivo, Echinochloa crus-galli; settings: Echinochloa crus-galli, post-emergence, 240 h
# Summary of the method: as §3
# velvetleaf = test: Test C postemergence; format: in vivo, Abutilon theophrasti; settings: Abutilon theophrasti, post-emergence
# Description: as §1, §2
# johnsongrass = test: Test C postemergence; format: in vivo, Sorghum halepense; settings: Sorghum halepense, post-emergence
# Description: as §1, §2
# sedge, umbrella = test: Test B flooded paddy test; format: in vivo, Cyperus difformis; settings: Cyperus difformis, Flood, 250 g ai/ha; 0 to 100 scale where 0 is no effect and 100 is complete control; read-out: Plant response rating, Sedge, Umbrella
# Summary of the method: as §4
# corn = test: Test A preemergence; format: in vivo, Zea mays; settings: Zea mays, pre-emergence, 240 h, read-out: Corn plant response rating
# Summary of the method: as §3
# [3] = 125 g ai/ha, 0 to 100 scale where 0 is no effect and 100 is complete control
# [4] = 500 g ai/ha, 0 to 100 scale, 0 no effect, 100 complete control, approx. 10 days
smiles,measurement,setting,value
"Fc1cnc(Oc2ccccc2-n2cc(Br)cn2)nc1 [Compound 10, 2-[2-(4-bromo-1H-pyrazol-1-yl)phenoxy]-5-fluoropyrimidine]",pest or weed control at 125 g/ha,"yellow nutsedge; 125 g ai/ha, postemergence, read-out: Plant response rating (0 to 100), Nutsedge, Yellow",5%
same,pest or weed control at 250 g/ha,"yellow nutsedge; 250 g ai/ha, postemergence, read-out: Plant response rating (0 to 100), Nutsedge, Yellow",5%
same,pest or weed control at 31 g/ha,"yellow nutsedge; Postemergence, 31 g ai/ha, scale 0 to 100 (0 no effect, 100 complete control), 13 to 15 days, read-out: Plant response rating, Nutsedge, Yellow",0%
same,pest or weed control at 62 g/ha,"yellow nutsedge; Postemergence, 62 g ai/ha, scale 0 to 100 (0 no effect, 100 complete control), read-out: Plant response rating, Nutsedge, Yellow",5%
same,pest or weed control at 125 g/ha,"wild oat; 125 g ai/ha, postemergence, read-out: Plant response rating (0 to 100), Oat, Wild",5%
same,pest or weed control at 250 g/ha,"wild oat; 250 g ai/ha, postemergence, read-out: Plant response rating (0 to 100), Oat, Wild",30%
same,pest or weed control at 31 g/ha,"wild oat; Postemergence, 31 g ai/ha, scale 0 to 100 (0 no effect, 100 complete control), 13 to 15 days, read-out: Plant response rating, Oat, Wild",0%
same,pest or weed control at 62 g/ha,"wild oat; Postemergence, 62 g ai/ha, scale 0 to 100 (0 no effect, 100 complete control), read-out: Plant response rating, Oat, Wild",0%
same,pest or weed control at 125 g/ha,"pigweed; 125 g ai/ha, postemergence, read-out: Plant response rating (0 to 100), Pigweed",100%
same,pest or weed control at 250 g/ha,"pigweed; 250 g ai/ha, postemergence, read-out: Plant response rating (0 to 100), Pigweed",100%
same,pest or weed control at 31 g/ha,"pigweed; Postemergence, 31 g ai/ha, scale 0 to 100 (0 no effect, 100 complete control), 13 to 15 days, read-out: Plant response rating, Pigweed",75%
same,pest or weed control at 62 g/ha,"pigweed; Postemergence, 62 g ai/ha, scale 0 to 100 (0 no effect, 100 complete control), read-out: Plant response rating, Pigweed",98%
same,pest or weed control at 125 g/ha,"Italian ryegrass; 125 g ai/ha, postemergence, read-out: Plant response rating (0 to 100), Ryegrass, Italian",5%
same,pest or weed control at 250 g/ha,"Italian ryegrass; 250 g ai/ha, postemergence, read-out: Plant response rating (0 to 100), Ryegrass, Italian",10%
same,pest or weed control at 31 g/ha,"Italian ryegrass; Postemergence, 31 g ai/ha, scale 0 to 100 (0 no effect, 100 complete control), 13 to 15 days, read-out: Plant response rating, Ryegrass, Italian",0%
same,pest or weed control at 62 g/ha,"Italian ryegrass; Postemergence, 62 g ai/ha, scale 0 to 100 (0 no effect, 100 complete control), read-out: Plant response rating, Ryegrass, Italian",0%
same,pest or weed control at 125 g/ha,morningglory; [3],40%
same,pest or weed control at 500 g/ha,morningglory; [4],60%
same,pest or weed control at 250 g/ha,barnyardgrass [1],0%
same,pest or weed control at 125 g/ha,"barnyardgrass [2]; 125 g ai/ha, 0 to 100 scale where 0 is no effect and 100 is complete control, read-out: Plant response rating, Barnyardgrass",40%
same,pest or weed control at 500 g/ha,"barnyardgrass [2]; 500 g ai/ha, 0 to 100 scale, 0 no effect, 100 complete control, read-out: Plant response rating Barnyardgrass",90%
same,pest or weed control at 125 g/ha,"velvetleaf; 125 g ai/ha, postemergence, read-out: Plant response rating (0 to 100), Velvetleaf",70%
same,pest or weed control at 250 g/ha,"velvetleaf; 250 g ai/ha, postemergence, read-out: Plant response rating (0 to 100), Velvetleaf",90%
same,pest or weed control at 31 g/ha,"velvetleaf; Postemergence, 31 g ai/ha, scale 0 to 100 (0 no effect, 100 complete control), 13 to 15 days, read-out: Plant response rating, Velvetleaf",50%
same,pest or weed control at 62 g/ha,"velvetleaf; Postemergence, 62 g ai/ha, scale 0 to 100 (0 no effect, 100 complete control), read-out: Plant response rating, Velvetleaf",70%
same,pest or weed control at 125 g/ha,"johnsongrass; 125 g ai/ha, postemergence, read-out: Plant response rating (0 to 100), Johnsongrass",5%
same,pest or weed control at 250 g/ha,"johnsongrass; 250 g ai/ha, postemergence, read-out: Plant response rating (0 to 100), Johnsongrass",10%
same,pest or weed control at 31 g/ha,"johnsongrass; Postemergence, 31 g ai/ha, scale 0 to 100 (0 no effect, 100 complete control), 13 to 15 days, read-out: Plant response rating, Johnsongrass",5%
same,pest or weed control at 250 g/ha,"sedge, umbrella",50%
same,plant injury at 125 g/ha,corn; [3],0%
same,plant injury at 500 g/ha,corn; [4],20%
